{"source": "patent US8192962B2", "about": "“Processes for detecting toxic substances” (Daikin Industries, Ltd., priority 2001, dated 2012)", "tested_on": "Unknown protein yeast genes", "experiment": "DNA chip mRNA expression in yeast, unknown protein yeast genes (Table 1)", "assay_type": "cell-based, Saccharomyces cerevisiae S288C", "description": "Yeast (Saccharomyces cerevisiae S288C (α SUC2mal mel gap2 CUP1)) were incubated at 25° C. on YPD medium (yeast extract 1%, polypepton 2%, glucose 2%). One of toxic chemical substances was added to the cells at logarithmic growth phase, and the cells were further incubated for two hours. Cells were cultured without any chemical substance in the same condition, and were used as control. Concentrations of the chemical substances were defined to inhibit the growth of the yeast but not lead to death.\nAfter completion of the incubation, the culture was centrifuged to collect the cells. To the cells, sodium acetate buffer (50 mM sodium acetate, 10 mM EDTA, 1% SDS) was added, and the mixture was shaken at 65° C. for five minutes, followed by returning to room temperature, and obtaining the supernatant, of which the procedures were repeated two times. To the supernatant, ½ amount of a solution of phenol/chloroform was added, and the mixture was centrifuged to give a supernatant, which was added with an equal amount of chloroform, and the mixture was centrifuged to give a supernatant. To the supernatant, an equal amount of isopropanol containing 0.3 M sodium acetate was added, and the mixture was allowed to stand at room temperature for 30 minutes, after which the mixture was centrifuged to give a sediment of the whole RNAs. Seventy % ethanol was added to the sediment, and the mixture was again centrifuged to give a sediment, which was then dried and dissolved in water. mRNA was isolated from the whole RNAs as followings. In view of the fact that a poly A chain is attached to the 3′ terminus of mRNA, a polynucleotide having a poly T structure which was immobilized on the surface of latex beads was used to trap the mRNA, and then the mRNA was washed and eluted with spine column (Oligotex-dT30<Super>mRNA Purification Kit, Takara). Reverse transcription of the mRNA was conducted with a reverse transcriptase (Super Script II Reverse Transcriptase; catalogue No. 18064-014, GibcoBRL) using fluorescence-labeled nucleotides to give cDNAs that were introduced with Cy3-dUTP or Cy5-dUTP during the reverse transcription.\nThe labeled cDNAs were dissolved in TE buffer (10mM Tris-HCl/1 mM EDTA, pH8.0), and the solution was dropped on the DNA chip containing the whole genes of yeast (DNA Chip Research Inc. Japan) so that the cDNAs were hybridized on the DNA chip at 65° C. for over 12 hours. The fluoresces intensity of the DNA chip was read with a scanner, and the ratio relative to the fluorescence intensity resulting from the absence of chemical substance was estimated as the following, which is shown in Tables 1 to 9: […]"}
{"smiles": "[Cl][Pb][Cl]", "note": "[(4), PbCl2]", "values": [{"measurement": "The level of expressed mRNA in the presence of chemical substance/The level of expressed mRNA in the absence of chemical substance", "setting": "yeast gene YKL195W, incubated two hours with chemical substance", "value": 1.1}, {"measurement": "The level of expressed mRNA in the presence of chemical substance/The level of expressed mRNA in the absence of chemical substance", "setting": "yeast gene YKR091W, incubated two hours with chemical substance", "value": 3.5}, {"measurement": "The level of expressed mRNA in the presence of chemical substance/The level of expressed mRNA in the absence of chemical substance", "setting": "yeast gene YLR054C, incubated two hours with chemical substance", "value": 2.4}, {"measurement": "The level of expressed mRNA in the presence of chemical substance/The level of expressed mRNA in the absence of chemical substance", "setting": "yeast gene YLR149C, incubated two hours with chemical substance", "value": 2.3}, {"measurement": "The level of expressed mRNA in the presence of chemical substance/The level of expressed mRNA in the absence of chemical substance", "setting": "yeast gene YLR152C, incubated two hours with chemical substance", "value": 0.9}, {"measurement": "The level of expressed mRNA in the presence of chemical substance/The level of expressed mRNA in the absence of chemical substance", "setting": "yeast gene YLR194C, incubated two hours with chemical substance", "value": 3.6}, {"measurement": "The level of expressed mRNA in the presence of chemical substance/The level of expressed mRNA in the absence of chemical substance", "setting": "yeast gene YLR324W, incubated two hours with chemical substance", "value": 1.0}, {"measurement": "The level of expressed mRNA in the presence of chemical substance/The level of expressed mRNA in the absence of chemical substance", "setting": "yeast gene YLR350W, incubated two hours with chemical substance", "value": 2.3}, {"measurement": "The level of expressed mRNA in the presence of chemical substance/The level of expressed mRNA in the absence of chemical substance", "setting": "yeast gene YLR387C, incubated two hours with chemical substance", "value": 0.6}, {"measurement": "The level of expressed mRNA in the presence of chemical substance/The level of expressed mRNA in the absence of chemical substance", "setting": "yeast gene YLR460C", "value": 1.1}, {"measurement": "The level of expressed mRNA in the presence of chemical substance/The level of expressed mRNA in the absence of chemical substance", "setting": "yeast gene YML117W, incubated two hours with chemical substance", "value": 1.6}, {"measurement": "The level of expressed mRNA in the presence of chemical substance/The level of expressed mRNA in the absence of chemical substance", "setting": "yeast gene YMR009W, incubated two hours with chemical substance", "value": 1.9}, {"measurement": "The level of expressed mRNA in the presence of chemical substance/The level of expressed mRNA in the absence of chemical substance", "setting": "yeast gene YMR067C, incubated two hours with chemical substance", "value": 0.4}, {"measurement": "The level of expressed mRNA in the presence of chemical substance/The level of expressed mRNA in the absence of chemical substance", "setting": "yeast gene YMR090W", "value": 3.5}, {"measurement": "The level of expressed mRNA in the presence of chemical substance/The level of expressed mRNA in the absence of chemical substance", "setting": "yeast gene YMR095C, incubated two hours with chemical substance", "value": 1.0}, {"measurement": "The level of expressed mRNA in the presence of chemical substance/The level of expressed mRNA in the absence of chemical substance", "setting": "yeast gene YMR097C, incubated two hours with chemical substance", "value": 1.6}, {"measurement": "The level of expressed mRNA in the presence of chemical substance/The level of expressed mRNA in the absence of chemical substance", "setting": "yeast gene YMR102C, incubated two hours with chemical substance", "value": 0.8}, {"measurement": "The level of expressed mRNA in the presence of chemical substance/The level of expressed mRNA in the absence of chemical substance", "setting": "yeast gene YMR107W, incubated two hours with chemical substance", "value": 18.4}, {"measurement": "The level of expressed mRNA in the presence of chemical substance/The level of expressed mRNA in the absence of chemical substance", "setting": "yeast gene YMR180C, incubated two hours with chemical substance", "value": 1.3}, {"measurement": "The level of expressed mRNA in the presence of chemical substance/The level of expressed mRNA in the absence of chemical substance", "setting": "yeast gene YMR184W, incubated two hours with chemical substance", "value": 1.1}, {"measurement": "The level of expressed mRNA in the presence of chemical substance/The level of expressed mRNA in the absence of chemical substance", "setting": "yeast gene YMR191W, incubated two hours with chemical substance", "value": 1.6}, {"measurement": "The level of expressed mRNA in the presence of chemical substance/The level of expressed mRNA in the absence of chemical substance", "setting": "yeast gene YMR295C, incubated two hours with chemical substance", "value": 1.6}, {"measurement": "The level of expressed mRNA in the presence of chemical substance/The level of expressed mRNA in the absence of chemical substance", "setting": "yeast gene YMR316W, incubated two hours with chemical substance", "value": 1.9}, {"measurement": "The level of expressed mRNA in the presence of chemical substance/The level of expressed mRNA in the absence of chemical substance", "setting": "yeast gene YNL044W, incubated two hours with chemical substance", "value": 1.3}, {"measurement": "The level of expressed mRNA in the presence of chemical substance/The level of expressed mRNA in the absence of chemical substance", "setting": "yeast gene YNL074C, incubated two hours with chemical substance", "value": 1.2}, {"measurement": "The level of expressed mRNA in the presence of chemical substance/The level of expressed mRNA in the absence of chemical substance", "setting": "yeast gene YNL092W, incubated two hours with chemical substance", "value": 1.8}, {"measurement": "The level of expressed mRNA in the presence of chemical substance/The level of expressed mRNA in the absence of chemical substance", "setting": "yeast gene YNL115C, incubated two hours with chemical substance", "value": 1.4}, {"measurement": "The level of expressed mRNA in the presence of chemical substance/The level of expressed mRNA in the absence of chemical substance", "setting": "yeast gene YNL156C, incubated two hours with chemical substance", "value": 1.3}, {"measurement": "The level of expressed mRNA in the presence of chemical substance/The level of expressed mRNA in the absence of chemical substance", "setting": "yeast gene YNL234W, incubated two hours with chemical substance", "value": 1.8}, {"measurement": "The level of expressed mRNA in the presence of chemical substance/The level of expressed mRNA in the absence of chemical substance", "setting": "yeast gene YNL281W, incubated two hours with chemical substance", "value": 1.4}, {"measurement": "The level of expressed mRNA in the presence of chemical substance/The level of expressed mRNA in the absence of chemical substance", "setting": "yeast gene YNL305C, incubated two hours with chemical substance", "value": 1.4}, {"measurement": "The level of expressed mRNA in the presence of chemical substance/The level of expressed mRNA in the absence of chemical substance", "setting": "yeast gene YNR068C, incubated two hours with chemical substance", "value": 2.6}, {"measurement": "The level of expressed mRNA in the presence of chemical substance/The level of expressed mRNA in the absence of chemical substance", "setting": "yeast gene YOL032W, incubated two hours with chemical substance", "value": 1.3}, {"measurement": "The level of expressed mRNA in the presence of chemical substance/The level of expressed mRNA in the absence of chemical substance", "setting": "yeast gene YOL036W, incubated two hours with chemical substance", "value": 0.8}, {"measurement": "The level of expressed mRNA in the presence of chemical substance/The level of expressed mRNA in the absence of chemical substance", "setting": "yeast gene YOL047C, incubated two hours with chemical substance", "value": 2.5}, {"measurement": "The level of expressed mRNA in the presence of chemical substance/The level of expressed mRNA in the absence of chemical substance", "setting": "yeast gene YOL071W, incubated two hours with chemical substance", "value": 2.0}, {"measurement": "The level of expressed mRNA in the presence of chemical substance/The level of expressed mRNA in the absence of chemical substance", "setting": "yeast gene YOL082W, incubated two hours with chemical substance", "value": 2.1}, {"measurement": "The level of expressed mRNA in the presence of chemical substance/The level of expressed mRNA in the absence of chemical substance", "setting": "yeast gene YOL083W, incubated two hours with chemical substance", "value": 2.8}, {"measurement": "The level of expressed mRNA in the presence of chemical substance/The level of expressed mRNA in the absence of chemical substance", "setting": "yeast gene YOL117W, incubated two hours with chemical substance", "value": 1.4}, {"measurement": "The level of expressed mRNA in the presence of chemical substance/The level of expressed mRNA in the absence of chemical substance", "setting": "yeast gene YOL131W, incubated two hours with chemical substance", "value": 1.0}, {"measurement": "The level of expressed mRNA in the presence of chemical substance/The level of expressed mRNA in the absence of chemical substance", "setting": "yeast gene YOL150C", "value": 0.9}, {"measurement": "The level of expressed mRNA in the presence of chemical substance/The level of expressed mRNA in the absence of chemical substance", "setting": "yeast gene YOL162W, incubated two hours with chemical substance", "value": 1.4}, {"measurement": "The level of expressed mRNA in the presence of chemical substance/The level of expressed mRNA in the absence of chemical substance", "setting": "yeast gene YOR019W, incubated two hours with chemical substance", "value": 4.7}, {"measurement": "The level of expressed mRNA in the presence of chemical substance/The level of expressed mRNA in the absence of chemical substance", "setting": "yeast gene YOR197W, incubated two hours with chemical substance", "value": 1.4}, {"measurement": "The level of expressed mRNA in the presence of chemical substance/The level of expressed mRNA in the absence of chemical substance", "setting": "yeast gene YPL087W, incubated two hours with chemical substance", "value": 7.3}, {"measurement": "The level of expressed mRNA in the presence of chemical substance/The level of expressed mRNA in the absence of chemical substance", "setting": "yeast gene YPL196W, incubated two hours with chemical substance", "value": 1.7}, {"measurement": "The level of expressed mRNA in the presence of chemical substance/The level of expressed mRNA in the absence of chemical substance", "setting": "yeast gene YPL206C, incubated two hours with chemical substance", "value": 1.9}, {"measurement": "The level of expressed mRNA in the presence of chemical substance/The level of expressed mRNA in the absence of chemical substance", "setting": "yeast gene YPL222W, incubated two hours with chemical substance", "value": 1.3}, {"measurement": "The level of expressed mRNA in the presence of chemical substance/The level of expressed mRNA in the absence of chemical substance", "setting": "yeast gene YPR023C, incubated two hours with chemical substance", "value": 0.8}, {"measurement": "The level of expressed mRNA in the presence of chemical substance/The level of expressed mRNA in the absence of chemical substance", "setting": "yeast gene YPR151C, incubated two hours with chemical substance", "value": 4.1}]}
